Data as given in US9969742B2, “Imidazotriazinone compounds” (Ironwood Pharmaceuticals, Inc., priority 2012, dated 2018).
Like-named read-outs stand apart in the source and are kept apart here.

Assays:
Assay type in all cases: biochemical
PDE9A2 = target: T1, PDE9A2 (Homo sapiens, UniProt O76083); assay: Phosphodiesterase enzyme screening assay, PDE9A2
T1 construct: purchased Reaction Biology Corporation, Malvern, Pa
Outline: (§1)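 Human PDE isoforms were incubated 1 h at room temperature with 4.0 μM fluorescent cGMP substrate in 100 mM HEPES pH 7.5, 5 mM MgCl2, 1 mM DTT, 0.003% Brij. EDTA stop buffer ended reactions, and substrate and 5′-GMP product were separated by microfluidic electrophoretic mobility shift with laser-induced fluorescence. Inhibition was calculated against control wells.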

PDE1B = target: T2, PDE1B (Homo sapiens, UniProt Q01064); assay: Phosphodiesterase enzyme screening assay, PDE1B
T2 construct: purchased Reaction Biology Corporation, Malvern, Pa
T2 sequence (Q01064 whole entry): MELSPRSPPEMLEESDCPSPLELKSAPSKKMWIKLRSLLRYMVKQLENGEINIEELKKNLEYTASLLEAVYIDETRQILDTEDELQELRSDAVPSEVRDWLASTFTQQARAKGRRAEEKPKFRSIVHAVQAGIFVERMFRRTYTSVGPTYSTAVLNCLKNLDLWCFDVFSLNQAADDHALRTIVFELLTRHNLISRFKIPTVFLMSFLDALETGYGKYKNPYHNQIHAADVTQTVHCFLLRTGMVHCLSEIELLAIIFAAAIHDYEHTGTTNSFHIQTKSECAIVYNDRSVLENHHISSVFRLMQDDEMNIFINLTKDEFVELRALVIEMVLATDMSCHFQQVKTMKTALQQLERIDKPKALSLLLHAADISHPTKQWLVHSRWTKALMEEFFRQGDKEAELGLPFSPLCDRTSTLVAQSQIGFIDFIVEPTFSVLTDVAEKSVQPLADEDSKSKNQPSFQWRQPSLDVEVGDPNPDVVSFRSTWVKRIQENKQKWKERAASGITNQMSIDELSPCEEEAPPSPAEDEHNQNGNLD
Outline: as §1

PDE1A = target: T3, PDE1A (Homo sapiens, UniProt P54750); assay: Phosphodiesterase enzyme screening assay, PDE1A
T3 construct: purchased Reaction Biology Corporation, Malvern, Pa
T3 sequence (P54750 whole entry): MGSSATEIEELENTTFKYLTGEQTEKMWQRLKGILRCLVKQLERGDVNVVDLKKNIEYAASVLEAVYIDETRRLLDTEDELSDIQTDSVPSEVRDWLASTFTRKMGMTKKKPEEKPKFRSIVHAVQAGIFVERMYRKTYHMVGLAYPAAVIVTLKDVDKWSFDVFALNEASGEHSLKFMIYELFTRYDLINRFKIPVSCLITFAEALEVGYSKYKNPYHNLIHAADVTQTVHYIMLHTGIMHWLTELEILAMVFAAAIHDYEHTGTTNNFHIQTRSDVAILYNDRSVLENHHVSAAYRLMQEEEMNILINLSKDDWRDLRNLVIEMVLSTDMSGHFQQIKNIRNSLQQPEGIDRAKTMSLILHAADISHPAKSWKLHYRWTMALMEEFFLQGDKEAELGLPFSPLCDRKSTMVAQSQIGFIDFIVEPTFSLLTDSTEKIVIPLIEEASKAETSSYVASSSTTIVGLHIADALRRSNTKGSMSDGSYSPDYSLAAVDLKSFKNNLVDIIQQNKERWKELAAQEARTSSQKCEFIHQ
Outline: as §1

[1] = ratio of IC50 values, PDE1B versus PDE9A2, value greater than 1 indicates greater selectivity for PDE9A2
[2] = ratio of IC50 values, PDE1A versus PDE9A2, value greater than 1 indicates greater selectivity for PDE9A2
[3] = Table 1, 10 concentrations, 4.0 μM cGMP substrate, 1 hour at R.T., read-out: Band (PDE9A2 IC50)
[4] = Table 1, ratio of IC50 values, value greater than 1 indicates greater selectivity for PDE9A2
[5] = 4.0 μM cGMP substrate, 1 hour at R.T., read-out: Band (PDE9A2 IC50)
[6] = ratio of IC50 values, value greater than 1 indicates greater selectivity for PDE9A2

T1 sequence (O76083 1-533 isoform O76083-2): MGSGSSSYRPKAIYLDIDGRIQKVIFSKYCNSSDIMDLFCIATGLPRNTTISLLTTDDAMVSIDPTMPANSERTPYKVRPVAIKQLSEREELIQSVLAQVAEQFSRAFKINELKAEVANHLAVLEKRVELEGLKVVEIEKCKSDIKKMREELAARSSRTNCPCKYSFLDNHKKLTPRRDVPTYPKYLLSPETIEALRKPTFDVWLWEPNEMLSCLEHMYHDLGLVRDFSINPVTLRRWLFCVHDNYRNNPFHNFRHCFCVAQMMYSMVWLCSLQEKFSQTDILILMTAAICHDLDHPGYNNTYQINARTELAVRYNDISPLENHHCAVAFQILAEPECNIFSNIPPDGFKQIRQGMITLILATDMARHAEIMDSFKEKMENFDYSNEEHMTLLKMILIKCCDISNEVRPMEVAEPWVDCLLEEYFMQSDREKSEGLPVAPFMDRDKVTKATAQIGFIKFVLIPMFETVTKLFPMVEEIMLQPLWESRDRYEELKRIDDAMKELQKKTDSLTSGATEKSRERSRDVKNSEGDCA

Row | Structure (SMILES) | IC50 (PDE9A2; read-out: Band (PDE9A2 IC50)) [nM] | IC50 (PDE9A2; [3]) [nM] | PDE1B selectivity (versus PDE9A2) (PDE1B; [4]) | PDE1A selectivity (versus PDE9A2) (PDE1A; [4]) | other results
1 | CC1CN(Cc2ccn(C)n2)CC1c1nn2c(C3CCOCC3)ncc2c(=O)[nH]1 (single isomer, unassigned; (+)) [(+)-2-((3,4-trans)-4-methyl-1-((1-methyl-1H-pyrazol-3-yl)methyl)pyrrolidin-3-yl)-7-(tetrahydro-2H-pyran-4-yl)imidazo[5,1-f][1,2,4]triazin-4(3H)-one] |  |  |  |  | IC50 (PDE9A2; Table 3, 4.0 μM cGMP substrate, 1 hour at R.T., read-out: Band (PDE9A2 IC50)): < 1000 nM; PDE1B selectivity (versus PDE9A2) (PDE1B; ratio of IC50 values, PDE1B versus PDE9A2, value greater than 1 = greater selectivity for PDE9A2): 721; PDE1A selectivity (versus PDE9A2) (PDE1A; ratio of IC50 values, PDE1A versus PDE9A2, value greater than 1 = greater selectivity for PDE9A2): 628
2 | Cc1ccccc1-c1ncc2c(=O)[nH]c(C3CN(Cc4cn5ccccc5n4)CC3C)nn12 (single isomer, unassigned; (+)) [(+)-2-((3,4-trans)-1-(imidazo[1,2-a]pyridin-2-ylmethyl)-4-methylpyrrolidin-3-yl)-7-(o-tolyl)imidazo[5,1-f][1,2,4]triazin-4(3H)-one] | < 1000 |  |  |  | PDE1B selectivity (versus PDE9A2) (PDE1B; [1]): 661; PDE1A selectivity (versus PDE9A2) (PDE1A; [2]): 326
3 | Cc1ccccc1-c1ncc2c(=O)[nH]c(C3CN(Cc4cnccn4)CC3C)nn12 (single isomer, unassigned; (+)) [(+)-2-((3,4-trans)-4-methyl-1-(pyrazin-2-ylmethyl)pyrrolidin-3-yl)-7-(o-tolyl)imidazo[5,1-f][1,2,4]triazin-4(3H)-one] | < 1000 |  |  |  | PDE1B selectivity (versus PDE9A2) (PDE1B; [1]): 469; PDE1A selectivity (versus PDE9A2) (PDE1A; [2]): 387
4 | CC1CN(Cc2cccc(F)c2F)CC1c1nn2c(C3CCOCC3)ncc2c(=O)[nH]1 (single isomer, unassigned; (+)) [(+)-2-((3,4-trans)-1-(2,3-difluorobenzyl)-4-methylpyrrolidin-3-yl)-7-(tetrahydro-2H-pyran-4-yl)imidazo[5,1-f][1,2,4]triazin-4(3H)-one] |  | < 1000 | 218 | 159 | 
5 | CC1CN(Cc2ncccn2)CC1c1nn2c(-c3ccccc3F)ncc2c(=O)[nH]1 (single isomer, unassigned; (+)) [(+)-7-(2-fluorophenyl)-2-((3,4-trans)-4-methyl-1-(pyrimidin-2-ylmethyl)pyrrolidin-3-yl)imidazo[5,1-f][1,2,4]triazin-4(3H)-one] |  |  |  |  | IC50 (PDE9A2; [5]): < 1000 nM; PDE1B selectivity (versus PDE9A2) (PDE1B; ratio of IC50 values PDE1B / PDE9A2, value greater than 1 indicates greater selectivity for PDE9A2): 39; PDE1A selectivity (versus PDE9A2) (PDE1A; ratio of IC50 values PDE1A / PDE9A2, value greater than 1 indicates greater selectivity for PDE9A2): 19
6 | CC1CN(Cc2cnn3c2CCCC3)CC1c1nn2c(C3CCOCC3)ncc2c(=O)[nH]1 (single isomer, unassigned; (+)) [(+)-2-((3,4-trans)-4-methyl-1-((4,5,6,7-tetrahydropyrazolo[1,5-a]pyridin-3-yl)methyl)pyrrolidin-3-yl)-7-(tetrahydro-2H-pyran-4-yl)imidazo[5,1-f][1,2,4]triazin-4(3H)-one] | < 1000 |  |  |  | PDE1B selectivity (versus PDE9A2) (PDE1B; [6]): 337; PDE1A selectivity (versus PDE9A2) (PDE1A; [6]): 337
7 | Cc1cc(F)ccc1-c1ncc2c(=O)[nH]c(C3CN(Cc4cccnc4)CC3C)nn12 (single isomer, unassigned; (+)) [(+)-7-(4-fluoro-2-methylphenyl)-2-((3,4-trans)-4-methyl-1-(pyridin-3-ylmethyl)pyrrolidin-3-yl)imidazo[5,1-f][1,2,4]triazin-4(3H)-one] |  |  |  |  | IC50 (PDE9A2; IC50 band, 4.0 μM cGMP substrate, 1 hour at R.T.): < 1000 nM; PDE1B selectivity (versus PDE9A2) (PDE1B; ratio of IC50 values PDE1B vs PDE9A2, value greater than 1 indicates greater selectivity for PDE9A2): 492; PDE1A selectivity (versus PDE9A2) (PDE1A; ratio of IC50 values PDE1A vs PDE9A2, value greater than 1 indicates greater selectivity for PDE9A2): 452
8 | COc1cccc(CN2CC(C)C(c3nn4c(C5CCOCC5)ncc4c(=O)[nH]3)C2)n1 (single isomer, unassigned; (+)) [(+)-2-((3,4-trans)-1-((6-methoxypyridin-2-yl)methyl)-4-methylpyrrolidin-3-yl)-7-(tetrahydro-2H-pyran-4-yl)imidazo[5,1-f][1,2,4]triazin-4(3H)-one] |  | < 1000 | 571 | 579 | 
9 | CC1CN(Cc2ccc(Cl)cc2Cl)CC1c1nn2c(C3CCOCC3)ncc2c(=O)[nH]1 (single isomer, unassigned; (+)) [(+)-2-((3,4-trans)-1-(2,4-dichlorobenzyl)-4-methylpyrrolidin-3-yl)-7-(tetrahydro-2H-pyran-4-yl)imidazo[5,1-f][1,2,4]triazin-4(3H)-one] |  | < 1000 | 994 | 598 | 
10 | CC1CN(Cc2cccc(Cl)c2)CC1c1nn2c(C3CCOCC3)ncc2c(=O)[nH]1 (single isomer, unassigned; (+)) [(+)-2-((3,4-trans)-1-(3-chlorobenzyl)-4-methylpyrrolidin-3-yl)-7-(tetrahydro-2H-pyran-4-yl)imidazo[5,1-f][1,2,4]triazin-4(3H)-one] |  | < 1000 | 331 | 470 | 
11 | CC1CN(Cc2ncc3ccccc3n2)CC1c1nn2c(C3CCOCC3)ncc2c(=O)[nH]1 (single isomer, unassigned; (-)) [(−)-2-((3,4-trans)-4-methyl-1-(quinazolin-2-ylmethyl)pyrroli] [(−)-2-((3,4-trans)-4-methyl-1-(quinazolin-2-ylmethyl)pyrrolidin-3-yl)-7-(tetrahydro-2H-pyran-4-yl)imidazo[5,1-f][1,2,4]triazin-4(3H)-one] |  | < 1000 | 2000 | 1213 | 
12 | CC1CN(Cc2ncno2)CC1c1nn2c(C3CCOCC3)ncc2c(=O)[nH]1 (single isomer, unassigned; (+)) [(+)-2-((3,4-trans)-1-((1,2,4-oxadiazol-5-yl)methyl)-4-methylpyrrolidin-3-yl)-7-(tetrahydro-2H-pyran-4-yl)imidazo[5,1-f][1,2,4]triazin-4(3H)-one] | < 1000 |  |  |  | PDE1B selectivity (versus PDE9A2) (PDE1B; [6]): 1528; PDE1A selectivity (versus PDE9A2) (PDE1A; [6]): 650
13 | Cc1cc(CN2CC(C)C(c3nn4c(C5CCOCC5)ncc4c(=O)[nH]3)C2)ccc1Cl (single isomer, unassigned; (+)) [(+)-2-((3,4-trans)-1-(4-chloro-3-methylbenzyl)-4-methylpyrrolidin-3-yl)-7-(tetrahydro-2H-pyran-4-yl)imidazo[5,1-f][1,2,4]triazin-4(3H)-one] |  |  |  |  | IC50 (PDE9A2; [5]): < 1000 nM; PDE1B selectivity (versus PDE9A2) (PDE1B; ratio of IC50 values PDE1B / PDE9A2, value greater than 1 = greater selectivity for PDE9A2): 818; PDE1A selectivity (versus PDE9A2) (PDE1A; ratio of IC50 values PDE1A / PDE9A2, value greater than 1 = greater selectivity for PDE9A2): 466
14 | CC1CN(Cc2ccc3cnccc3c2)CC1c1nn2c(C3CCOCC3)ncc2c(=O)[nH]1 (single isomer, unassigned; (+)) [(+)-2-((3,4-trans)-1-(isoquinolin-6-ylmethyl)-4-methylpyrrolidin-3-yl)-7-(tetrahydro-2H-pyran-4-yl)imidazo[5,1-f][1,2,4]triazin-4(3H)-one] |  | < 1000 | 335 | 145 | 
15 | CC1CN(Cc2nc3ccccn3n2)CC1c1nn2c(-c3ccc(F)cc3)ncc2c(=O)[nH]1 (single isomer, unassigned; (+)) [(+)-2-((3,4-trans)-1-([1,2,4]triazolo[1,5-a]pyridin-2-ylmethyl)-4-methylpyrrolidin-3-yl)-7-(4-fluorophenyl)imidazo[5,1-f][1,2,4]triazin-4(3H)-one] | < 1000 |  |  |  | PDE1B selectivity (versus PDE9A2) (PDE1B; [1]): 87; PDE1A selectivity (versus PDE9A2) (PDE1A; [2]): 87
16 | Cc1ncc(CN2CC(C)C(c3nn4c(C5CCOCC5)ncc4c(=O)[nH]3)C2)cn1 (single isomer, unassigned; (+)) [(+)-2-((3,4-trans)-4-methyl-1-((2-methylpyrimidin-5-yl)methyl)pyrrolidin-3-yl)-7-(tetrahydro-2H-pyran-4-yl)imidazo[5,1-f][1,2,4]triazin-4(3H)-one] |  | < 1000 | 60 | 80 | 
